The NIST ThermoML archive (doi:10.1021/je800548t)
± gives the expanded uncertainty stated by the source.

Details: Liquid, Ebulliometric method (Recirculating still)

| Structure (SMILES) | vapor or sublimation pressure (321 K) [kPa] | vapor or sublimation pressure (325 K) [kPa] | vapor or sublimation pressure (330 K) [kPa] | vapor or sublimation pressure (335 K) [kPa] | vapor or sublimation pressure (340 K) [kPa] | vapor or sublimation pressure (345 K) [kPa] | vapor or sublimation pressure (350 K) [kPa] | vapor or sublimation pressure (355 K) [kPa] | vapor or sublimation pressure (359 K) [kPa] | vapor or sublimation pressure (305 K) [kPa] | vapor or sublimation pressure (310 K) [kPa] | vapor or sublimation pressure (315 K) [kPa] | vapor or sublimation pressure (320 K) [kPa] | vapor or sublimation pressure (342 K) [kPa] |
| --- | --- | --- | --- | --- | --- | --- | --- | --- | --- | --- | --- | --- | --- | --- |
| CCO [ethanol] | 26.41 ± 0.21 | 32.02 ± 0.26 | 40.44 ± 0.33 | 50.67 ± 0.41 | 63 ± 0.51 | 77.77 ± 0.63 | 95.35 ± 0.77 | 116.13 ± 0.93 | 135.37 ± 1.1 | – | – | – | – | – |
| ClC(Cl)Cl [trichloromethane] | – | 73.88 ± 0.3 | 87.71 ± 0.36 | 103.5 ± 0.42 | 121.45 ± 0.49 | – | – | – | – | 34.81 ± 0.14 | 42.47 ± 0.17 | 51.43 ± 0.21 | 61.85 ± 0.25 | 129.28 ± 0.52 |
